# Assay results: patent publication US7001736B1, “Pharmacogenetic methods for use in the treatment of nervous system diseases” (priority 1995, dated 2006)
# Read-outs that look alike come from different tables or passages of the source.
# Legend:
# patients with AD = tested on: patients with AD
# Description: In this example we characterize patients with AD recruited for a large multi center study of tacrine and to investigate the impact of apoE allele load on short-term outcomes in placebo-treated patients, short-term Tacrine™ treatment effects, and long-term treatment outcome. The patients were classified by sex and dosage.
# The 30-week study was randomized, double-blind, placebo-controlled, parallel-group clinical trial conducted at 33 centers in the USA (see Knapp, M. J. et al. JAMA 271: 985–991 (1995) for complete methodology). Patients randomized to tacrine treatment received an initial dose of 40 mg/day (10 mg QID) and were force-titrated at 6-week intervals in increments of 40 mg to maximum dose levels of 80, 120, and 160 mg/day for Groups II, III, and IV, respectively. Group I received placebo for the entire 30 weeks. The protocol was approved by Institutional Review Boards for each study center and followed guidelines of the Declaration of Helsinki and Good Clinical Practices.
# Patients eligible for the 30-week study were men and women, at least 50 years of age, meeting National Institute of Neurological and Communicative Disorders and Stroke (NINCDS) criteria for a diagnosis of probable AD. […] Disease severity at the time of study entry was defined mild to moderate based on Mini-Mental State Examination. (MMSE) scores between 10 and 26 inclusive. Written informed consent was obtained from care givers and patients or their legal representatives. Medications with known central nervous system effects were prohibited during double-blind treatment. Once patients completed or terminated from the double-blind phase of the study there were no restrictions on concurrent medications. Patients who stopped tacrine treatment could take other investigational drugs.
# The ADAS-Cog is an objective test that evaluates memory, language, and praxis and is a sensitive measure of patient performance (maximum severity score of […]). A decrease in score indicates improvement.
# Four comparisons of tacrine 160 mg/day versus placebo were conducted: (1) without adjusting for ApoE4; (2) adjusting for the presence or absence of ApoE4; (3) for patients with Apo E4; and (4) without Apo E4. The estimated treatment differences, 95% confidence intervals for the treatment differences, and parametric p-values were computed from an analysis of variance (ANOVA) that included effects for randomized treatment group (placebo, 80 mg/day, 120 mg/day, and 160 mg/day) and study site. An analysis of covariance (ANCOVA) for ADAS-Cog also included baseline score a covariant. Least-square means were used to estimate the effect of the E4 allele on Week 30 efficacy scores.
# The change in ADAS-Cog scores at Week 30 were estimated for: (1) placebo patients with an E4 allele, (2) placebo patients without an E4 allele, (3) Tacrine™ 160 mg/day patients with an E4 allele, and (4) Tacrine™ 160 mg/day patients without an E4 allele using ANCOVA that adjusted for site and baseline score. Similarly, Week 30 CIBIC and FCCA scores were estimated using ANOVA adjusted for study site effects.
# AD patients = conditions: maximum dose, 40 to 160 mg/d over 30 weeks
# Description: The patients selection done on the basis of presence and absence of drug response to the treatment. The Alzheimer's Disease Assessment Scale (ADAS) used to monitor treatment effects. […] The ADAS-cog is an objective test that evaluates memory, attention, reasoning, orientation and praxis: a decrease score over time (or a positive difference) indicates improvement (Rosen W. G. et al, 1984, Am. J. Psychiatr., 141:1356 1364). The AD total includes the cognitive and non-cognitive portion of the ADAS.
# Each bar represents an individual subjects. Positive delta values (difference in AD score at the end minus AD score prior to drug treatment) indicate improvement in cognitive performance (ADcog) and in global performances (ADAS-total). Negative values represent patients who deteriorated over time and drug treatment. All the subjects are AD subjects, all were treated with the same drug, at the same level, for the same duration.
smiles,measurement,setting,value
"Nc1c2c(nc3ccccc13)CCCC2 [Tacrine, tacrine]",response to tacrine,patients with AD; men having two E4 alleles,do not respond
same,% of subjects with an improvement of the ADAS-COG score by at least 5 points,"patients with AD; men, Tacrine high, E4/X",69%
same,% of subjects with an improvement of the ADAS-COG score by at least 5 points,"patients with AD; men, Tacrine high, EX/X",29%
same,% of subjects with an improvement of the ADAS-COG score by at least 5 points,"patients with AD; men, Tacrine low, E4/4",0%
same,% of subjects with an improvement of the ADAS-COG score by at least 5 points,"patients with AD; men, Tacrine low, E4/X",14%
same,% of subjects with an improvement of the ADAS-COG score by at least 5 points,"patients with AD; men, Tacrine low, EX/X",33%
same,% of subjects with an improvement of the ADAS-COG score by at least 5 points,"patients with AD; men, Tacrine mid, E4/4",0%
same,% of subjects with an improvement of the ADAS-COG score by at least 5 points,"patients with AD; men, Tacrine mid, E4/X",34%
same,% of subjects with an improvement of the ADAS-COG score by at least 5 points,"patients with AD; men, Tacrine mid, EX/X",0%
same,response to tacrine,patients with AD; women having two E4 alleles,do not respond
same,% of subjects with an improvement of the ADAS-COG score by at least 5 points,"patients with AD; women, Tacrine high, E4/X",20%
same,% of subjects with an improvement of the ADAS-COG score by at least 5 points,"patients with AD; women, Tacrine high, EX/X",43%
same,% of subjects with an improvement of the ADAS-COG score by at least 5 points,"patients with AD; women, Tacrine low, E4/4",0%
same,% of subjects with an improvement of the ADAS-COG score by at least 5 points,"patients with AD; women, Tacrine low, E4/X",20%
same,% of subjects with an improvement of the ADAS-COG score by at least 5 points,"patients with AD; women, Tacrine mid, E4/4",0%
same,% of subjects with an improvement of the ADAS-COG score by at least 5 points,"patients with AD; women, Tacrine mid, E4/X",24%
same,% of subjects with an improvement of the ADAS-COG score by at least 5 points,"patients with AD; women, Tacrine mid, EX/X",67%
same,subjects showing improvement with tacrine administration (AD total),AD patients; apoE4 negative AD subjects,more than 85%
same,subjects worse following drug treatment (AD total),AD patients; apoE4 positive AD subjects,60%
